# Reference: the supplement of paper PMC10627819
# Experiments:
# [1] = test system: B. subtilis 168; experiment: fitness (endpoint OD595 vs no drug) (fraction); higher = more growth
# How it was run: (§1)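 Each well of a 384-well plate received 30 µl of culture at OD595 0.01, or 55 µl for S. pneumoniae. TSB, LB Lennox or CY served as media at 37 °C. OD595 was taken every 30 min for 14 h and corrected by subtracting the first reading. Fitness is the optical density at stationary-phase entry divided by the robust mean of no-drug controls, capped at 1.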
# [2] = test system: B. subtilis 168; experiment: Bliss interaction score (quartile over a dose matrix) (fitness difference); higher = more antagonism (negative = synergy)
# How it was run: (§2)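 Quartiles of the Bliss score were taken over technical, biological and donor/recipient replicates. That score is observed fitness minus the product of the single-drug fitness values, which were inferred from combination data. Fitness itself is OD595 at entry into stationary phase divided by the plate's robust no-drug mean, with a cap at 1.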
# [3] = test system: S. aureus DSM 20231; experiment: as above
# How it was run: as §2
# [4] = test system: S. aureus Newman; experiment: as above
# How it was run: as §2
# [5] = test system: S. pneumoniae D39V; experiment: as above
# How it was run: as §2
# [6] = test system: S. pneumoniae D39V; experiment: fitness (endpoint OD595 vs no drug) (fraction); higher = more growth
# How it was run: as §1
# 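Throughout, for Bliss interaction score (quartile over a dose matrix): first quartile when negative (synergy) and third quartile when positive (antagonism).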
structure (smiles),measurement,setting,value
CCCCCCCCCC(=O)N[C@@H](Cc1c[nH]c2ccccc12)C(=O)N[C@H](CC(N)=O)C(=O)N[C@@H](CC(=O)O)C(=O)N[C@@H]1C(=O)NCC(=O)N[C@@H](CCCN)C(=O)N[C@@H](CC(=O)O)C(=O)N[C@H](C)C(=O)N[C@@H](CC(=O)O)C(=O)NCC(=O)N[C@H](CO)C(=O)N[C@@H]([C@H](C)CC(=O)O)C(=O)N[C@@H](CC(=O)c2ccccc2N)C(=O)O[C@@H]1C [Daptomycin] + CO[C@@H]1[C@@H](OC(N)=O)[C@@H](O)[C@H](Oc2ccc3c(O)c(NC(=O)c4ccc(O)c(CC=C(C)C)c4)c(=O)oc3c2C)OC1(C)C [Novobiocin],fitness,"[1]; first compound 0.125 µg/mL, partner 0.0125 µg/mL",0.94
same,fitness,"[1]; first compound 0.125 µg/mL, partner 0.025 µg/mL",0.916
same,fitness,"[1]; first compound 0.125 µg/mL, partner 0.05 µg/mL",0.968
same,fitness,"[1]; first compound 0.125 µg/mL, partner 0.125 µg/mL, one replicate",0.958
same,fitness,"[1]; first compound 0.125 µg/mL, partner 0.25 µg/mL, one replicate",0.954
same,fitness,"[1]; first compound 0.125 µg/mL, partner 0.5 µg/mL, one replicate",0.649
same,fitness,"[1]; first compound 0.25 µg/mL, partner 0.0125 µg/mL",0.981
same,fitness,"[1]; first compound 0.25 µg/mL, partner 0.025 µg/mL",0.94
same,fitness,"[1]; first compound 0.25 µg/mL, partner 0.05 µg/mL",0.984
same,fitness,"[1]; first compound 0.25 µg/mL, partner 0.1 µg/mL, one replicate",0.96
same,fitness,"[1]; first compound 0.25 µg/mL, partner 0.125 µg/mL, one replicate",≥ 1
same,fitness,"[1]; first compound 0.25 µg/mL, partner 0.2 µg/mL, one replicate",0.957
same,fitness,"[1]; first compound 0.25 µg/mL, partner 0.25 µg/mL, one replicate",≥ 1
same,fitness,"[1]; first compound 0.25 µg/mL, partner 0.5 µg/mL, one replicate",0.579
same,fitness,"[1]; first compound 0.5 µg/mL, partner 0.0125 µg/mL",0.899
same,fitness,"[1]; first compound 0.5 µg/mL, partner 0.025 µg/mL",0.867
same,fitness,"[1]; first compound 0.5 µg/mL, partner 0.05 µg/mL",0.902
same,fitness,"[1]; first compound 0.5 µg/mL, partner 0.1 µg/mL, one replicate",0.94
same,fitness,"[1]; first compound 0.5 µg/mL, partner 0.125 µg/mL, one replicate",≥ 1
same,fitness,"[1]; first compound 0.5 µg/mL, partner 0.2 µg/mL, one replicate",0.936
same,fitness,"[1]; first compound 0.5 µg/mL, partner 0.25 µg/mL, one replicate",0.965
same,fitness,"[1]; first compound 0.5 µg/mL, partner 0.5 µg/mL, one replicate",0.288
same,fitness,"[1]; first compound 1 µg/mL, partner 0.05 µg/mL, one replicate",0.738
same,fitness,"[1]; first compound 1 µg/mL, partner 0.1 µg/mL, one replicate",0.791
same,fitness,"[1]; first compound 1 µg/mL, partner 0.2 µg/mL, one replicate",0.759
same,Bliss interaction score,[2],0.0788
same,Bliss interaction score,[3],0.0439
same,Bliss interaction score,[4],0.0984
same,Bliss interaction score,[5],0.0661
CCCCCCCCCC(=O)N[C@@H](Cc1c[nH]c2ccccc12)C(=O)N[C@H](CC(N)=O)C(=O)N[C@@H](CC(=O)O)C(=O)N[C@@H]1C(=O)NCC(=O)N[C@@H](CCCN)C(=O)N[C@@H](CC(=O)O)C(=O)N[C@H](C)C(=O)N[C@@H](CC(=O)O)C(=O)NCC(=O)N[C@H](CO)C(=O)N[C@@H]([C@H](C)CC(=O)O)C(=O)N[C@@H](CC(=O)c2ccccc2N)C(=O)O[C@@H]1C [Daptomycin] + C[C@@H](O)[C@H]1C(=O)N2C(C(=O)O)=C(SCCNC=N)C[C@H]12 [Imipenem],fitness,"[6]; first compound 1 µg/mL, partner 0.005 µg/mL",0.962
same,fitness,"[6]; first compound 1 µg/mL, partner 0.0065 µg/mL",0.886
same,fitness,"[6]; first compound 1 µg/mL, partner 0.01 µg/mL",0.986
same,fitness,"[6]; first compound 1 µg/mL, partner 0.013 µg/mL",0.808
same,fitness,"[6]; first compound 1 µg/mL, partner 0.02 µg/mL",0.935
same,fitness,"[6]; first compound 1 µg/mL, partner 0.026 µg/mL",0.716
same,fitness,"[6]; first compound 2 µg/mL, partner 0.005 µg/mL",0.979
same,fitness,"[6]; first compound 2 µg/mL, partner 0.0065 µg/mL",0.895
same,fitness,"[6]; first compound 2 µg/mL, partner 0.01 µg/mL",0.931
same,fitness,"[6]; first compound 2 µg/mL, partner 0.013 µg/mL",0.837
same,fitness,"[6]; first compound 2 µg/mL, partner 0.02 µg/mL",0.989
same,fitness,"[6]; first compound 2 µg/mL, partner 0.026 µg/mL",0.843
same,fitness,"[6]; first compound 4 µg/mL, partner 0.005 µg/mL",0.902
same,fitness,"[6]; first compound 4 µg/mL, partner 0.0065 µg/mL",0.93
same,fitness,"[6]; first compound 4 µg/mL, partner 0.01 µg/mL",0.884
same,fitness,"[6]; first compound 4 µg/mL, partner 0.013 µg/mL",0.947
same,fitness,"[6]; first compound 4 µg/mL, partner 0.02 µg/mL",0.897
same,fitness,"[6]; first compound 4 µg/mL, partner 0.026 µg/mL",0.887
same,Bliss interaction score,[2],-0.0985
same,Bliss interaction score,[3],0.0417
same,Bliss interaction score,[4],0.0265
same,Bliss interaction score,[5],0.0763
CCCCCCCCCC(=O)N[C@@H](Cc1c[nH]c2ccccc12)C(=O)N[C@H](CC(N)=O)C(=O)N[C@@H](CC(=O)O)C(=O)N[C@@H]1C(=O)NCC(=O)N[C@@H](CCCN)C(=O)N[C@@H](CC(=O)O)C(=O)N[C@H](C)C(=O)N[C@@H](CC(=O)O)C(=O)NCC(=O)N[C@H](CO)C(=O)N[C@@H]([C@H](C)CC(=O)O)C(=O)N[C@@H](CC(=O)c2ccccc2N)C(=O)O[C@@H]1C [Daptomycin] + Clc1ccc(COC(Cn2ccnc2)c2ccc(Cl)cc2Cl)c(Cl)c1 [Miconazole],fitness,"[6]; first compound 1 µg/mL, partner 1.073 µg/mL",0.962
same,fitness,"[6]; first compound 1 µg/mL, partner 1.25 µg/mL",0.922
same,fitness,"[6]; first compound 1 µg/mL, partner 2.145 µg/mL",0.967
same,fitness,"[6]; first compound 1 µg/mL, partner 2.5 µg/mL",0.913
same,fitness,"[6]; first compound 1 µg/mL, partner 4.29 µg/mL",0.841
same,fitness,"[6]; first compound 1 µg/mL, partner 5 µg/mL",0.898
same,fitness,"[6]; first compound 2 µg/mL, partner 1.073 µg/mL",0.984
same,fitness,"[6]; first compound 2 µg/mL, partner 1.25 µg/mL",0.888
same,fitness,"[6]; first compound 2 µg/mL, partner 2.145 µg/mL",0.981
same,fitness,"[6]; first compound 2 µg/mL, partner 2.5 µg/mL",0.896
same,fitness,"[6]; first compound 2 µg/mL, partner 4.29 µg/mL",0.881
same,fitness,"[6]; first compound 2 µg/mL, partner 5 µg/mL",0.86
same,fitness,"[6]; first compound 4 µg/mL, partner 1.073 µg/mL",≥ 1
same,fitness,"[6]; first compound 4 µg/mL, partner 1.25 µg/mL",0.847
same,fitness,"[6]; first compound 4 µg/mL, partner 2.145 µg/mL",≥ 1
same,fitness,"[6]; first compound 4 µg/mL, partner 2.5 µg/mL",0.813
same,fitness,"[6]; first compound 4 µg/mL, partner 4.29 µg/mL",0.882
same,fitness,"[6]; first compound 4 µg/mL, partner 5 µg/mL",0.836
same,Bliss interaction score,[2],0.0988
same,Bliss interaction score,[3],-0.0305
same,Bliss interaction score,[4],-0.0424
same,Bliss interaction score,[5],0.0797
CCCCCCCCCC(=O)N[C@@H](Cc1c[nH]c2ccccc12)C(=O)N[C@H](CC(N)=O)C(=O)N[C@@H](CC(=O)O)C(=O)N[C@@H]1C(=O)NCC(=O)N[C@@H](CCCN)C(=O)N[C@@H](CC(=O)O)C(=O)N[C@H](C)C(=O)N[C@@H](CC(=O)O)C(=O)NCC(=O)N[C@H](CO)C(=O)N[C@@H]([C@H](C)CC(=O)O)C(=O)N[C@@H](CC(=O)c2ccccc2N)C(=O)O[C@@H]1C [Daptomycin] + O=C1CN(/N=C/c2ccc([N+](=O)[O-])o2)C(=O)N1 [Nitrofurantoin],fitness,"[6]; first compound 1 µg/mL, partner 1.285 µg/mL",0.981
same,fitness,"[6]; first compound 1 µg/mL, partner 2 µg/mL",0.883
same,fitness,"[6]; first compound 1 µg/mL, partner 2.57 µg/mL",0.946
same,fitness,"[6]; first compound 1 µg/mL, partner 4 µg/mL",0.788
same,fitness,"[6]; first compound 1 µg/mL, partner 5.14 µg/mL, one replicate",0.839
same,fitness,"[6]; first compound 1 µg/mL, partner 8 µg/mL",0.338
same,fitness,"[6]; first compound 2 µg/mL, partner 1.285 µg/mL",0.943
same,fitness,"[6]; first compound 2 µg/mL, partner 2 µg/mL",0.85
same,fitness,"[6]; first compound 2 µg/mL, partner 2.57 µg/mL",0.904
same,fitness,"[6]; first compound 2 µg/mL, partner 4 µg/mL",0.763
same,fitness,"[6]; first compound 2 µg/mL, partner 5.14 µg/mL, one replicate",0.82
same,fitness,"[6]; first compound 2 µg/mL, partner 8 µg/mL",0.327
same,fitness,"[6]; first compound 4 µg/mL, partner 1.285 µg/mL",0.948
same,fitness,"[6]; first compound 4 µg/mL, partner 2 µg/mL",0.808
same,fitness,"[6]; first compound 4 µg/mL, partner 2.57 µg/mL",0.948
same,fitness,"[6]; first compound 4 µg/mL, partner 4 µg/mL",0.704
same,fitness,"[6]; first compound 4 µg/mL, partner 5.14 µg/mL, one replicate",0.883
same,fitness,"[6]; first compound 4 µg/mL, partner 8 µg/mL",0.34
same,Bliss interaction score,[2],-0.0871
same,Bliss interaction score,[3],0.0921
same,Bliss interaction score,[4],0.0519
same,Bliss interaction score,[5],0.0606
C[C@H]1COc2c(N3CCN(C)CC3)c(F)cc3c(=O)c(C(=O)O)cn1c23 [Levofloxacin] + C/C(=C\C(=O)OCCCCCCCCC(=O)O)C[C@@H]1OC[C@H](C[C@@H]2O[C@H]2[C@@H](C)[C@H](C)O)[C@@H](O)[C@H]1O [Pseudomonic acid],fitness,"[6]; first compound 0.1725 µg/mL, partner 0.03 µg/mL",0.875
same,fitness,"[6]; first compound 0.1725 µg/mL, partner 0.06 µg/mL",0.822
same,fitness,"[6]; first compound 0.1725 µg/mL, partner 0.12 µg/mL",0.57
same,fitness,"[6]; first compound 0.2 µg/mL, partner 0.03 µg/mL",0.899
same,fitness,"[6]; first compound 0.2 µg/mL, partner 0.06 µg/mL",0.752
same,fitness,"[6]; first compound 0.2 µg/mL, partner 0.12 µg/mL",0.573
same,fitness,"[6]; first compound 0.345 µg/mL, partner 0.03 µg/mL",0.856
same,fitness,"[6]; first compound 0.345 µg/mL, partner 0.06 µg/mL",0.781
same,fitness,"[6]; first compound 0.345 µg/mL, partner 0.12 µg/mL",0.524
same,fitness,"[6]; first compound 0.4 µg/mL, partner 0.03 µg/mL",0.882
same,fitness,"[6]; first compound 0.4 µg/mL, partner 0.06 µg/mL",0.766
same,fitness,"[6]; first compound 0.4 µg/mL, partner 0.12 µg/mL",0.599
same,fitness,"[6]; first compound 0.69 µg/mL, partner 0.03 µg/mL",0.598
same,fitness,"[6]; first compound 0.69 µg/mL, partner 0.06 µg/mL",0.541
same,fitness,"[6]; first compound 0.69 µg/mL, partner 0.12 µg/mL",0.376
same,fitness,"[6]; first compound 0.8 µg/mL, partner 0.03 µg/mL",0.647
same,fitness,"[6]; first compound 0.8 µg/mL, partner 0.06 µg/mL",0.687
same,fitness,"[6]; first compound 0.8 µg/mL, partner 0.12 µg/mL",0.519
same,Bliss interaction score,[2],0.0468
same,Bliss interaction score,[3],0.0199
same,Bliss interaction score,[4],0.0537
same,Bliss interaction score,[5],0.0974
